Source: patent US20250353891A1 (MEDIMMUNE LIMITED, priority 2022, published 2025)
Read-outs that look alike come from different tables or passages of the source. Starred links: 1 amine or outer side, 2 acyl side, 3 side chain; linkers in the order of their positions; H or OH if unused. Non-standard residues stand in square brackets, D forms with d. Residues, ends and D or L forms follow the SMILES beside them. Groups on a side chain read outwards from the residue. *: point of attachment. C20 diacid = O=C(O)CCCCCCCCCCCCCCCCCCC(=O)*; C18 diacid = O=C(O)CCCCCCCCCCCCCCCCC(=O)*; γGlu = O=C(O)[C@H](CCC(=O)[*:2])N[*:1]; αMeF = C[C@](N)(Cc1ccccc1)C(=O)O; AEEA = NCCOCCOCC(=O)O; Aib = CC(C)(N)C(=O)O

Key:
[1] = Proteolytic resistance to FasSSGF containing porcine pancreatic pepsin; type: in vitro ADME; details: pig, simulated gastric fluid
Description: Stimulated Gastric Fluid (FasSSGF) Containing Porcine Pancreatic Pepsin Lyophilized porcine pancreatic pepsin (Sigma: P7012) was reconstituted to 0.5 mg/mL (˜2500 units/mL) in freshly prepared FasSSGF (Biorelevant media) to give the enzyme stock solution. Peptide stock solution was prepared to a concentration of 250 μM (˜1.0 mg/mL) in FasSSGF. 200 μL ([…], ˜250 units) of pepsin stock solution was added to 200 μL of peptide solution (1.0 mg/mL, ˜100 μg of peptide, ˜25 nmoles) and the mixture was co-incubated in a temperature-regulated incubator at 37° C. for the duration of the experiment. 30 μL aliquot of the peptide-enzyme mixture was periodically withdrawn (t=0, 5, 10, 15, and 30 min) and quenched immediately by addition of 80 μL of 0.1M ammonium bicarbonate solution in water/acetonitrile (4:1, pH 8) to arrest proteolytic activity. 30 μL aliquot was analyzed by analytical RP-HPLC. Analytical RP-HPLC method: Agilent Polaris C8-A column (4.6×100 mm, 3 micron) eluted with a linear binary gradient of 10-90% MeCN (0.1% TFA v/v) in water (0.1% TFA v/v) over either 10 or 15 mins at 1.5 mL min-1 at 40° C. with detection by UV absorption at 210 nm. Manual integration (AUC) allowed estimation of remaining intact peptide over the time course of the experiment.

[2] = target: T1, recombinant Neprilysin (Homo sapiens, UniProt P08473); experiment: Proteolytic resistance to neprilysin; type: in vitro ADME; details: pH 8.3; for remaining at 4 h / remaining at 24 h: isolated enzyme neprilysin
T1 construct: purchased R&D Systems 1182-ZNC-010
T1 sequence (P08473 52-750 limits assumed): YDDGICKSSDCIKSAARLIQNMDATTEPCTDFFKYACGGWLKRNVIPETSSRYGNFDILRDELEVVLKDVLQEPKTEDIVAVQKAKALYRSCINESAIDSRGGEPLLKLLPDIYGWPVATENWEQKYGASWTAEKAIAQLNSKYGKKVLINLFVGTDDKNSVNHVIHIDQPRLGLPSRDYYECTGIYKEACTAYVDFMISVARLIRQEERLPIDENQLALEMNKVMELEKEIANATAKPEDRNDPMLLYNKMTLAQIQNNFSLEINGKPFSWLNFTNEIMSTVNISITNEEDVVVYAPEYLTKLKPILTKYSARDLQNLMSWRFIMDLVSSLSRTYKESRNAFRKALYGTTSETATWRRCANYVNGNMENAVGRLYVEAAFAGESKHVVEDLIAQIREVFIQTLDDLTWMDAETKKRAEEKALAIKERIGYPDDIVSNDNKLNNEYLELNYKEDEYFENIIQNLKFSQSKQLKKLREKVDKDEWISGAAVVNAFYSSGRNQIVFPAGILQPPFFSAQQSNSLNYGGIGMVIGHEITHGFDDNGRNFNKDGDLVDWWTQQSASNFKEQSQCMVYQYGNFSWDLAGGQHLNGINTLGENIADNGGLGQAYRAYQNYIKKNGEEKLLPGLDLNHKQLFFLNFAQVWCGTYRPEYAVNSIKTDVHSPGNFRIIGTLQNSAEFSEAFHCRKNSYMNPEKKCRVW
Description: 10.0 μg (˜10 units) recombinant Neprilysin (R&D Systems: 1182-ZNC-010) was reconstituted to 100 μL (100 μg/mL, ˜100 units/mL) in assay buffer (50 mM Tris, 50 mM NaCl, 50 mM NaHCO3, adjusted to pH 8.3) to give the enzyme stock solution. Peptide stock solutions were prepared to a concentration of ˜250 μM (˜1.0 mg/mL of 4 kDa peptide) in assay buffer. 100 μL (10 μg, ˜10 units) of neprilysin stock solution was added to 100 μL of peptide stock solution (1.0 mg/mL, ˜100 μg of peptide) and the mixture was co-incubated in a temperature regulated incubator at 37° C. for the duration of the experiment. 25 μL aliquots (˜ 12.5 μg initial peptide) of the peptide-enzyme mixture were periodically withdrawn (t=0, 30 mins, 1 h, 2 h, 4 h and 24 h) and quenched immediately by addition to an equal volume ([…]) of 10% TFA (v/v) in 1:1 water/acetonitrile to arrest proteolytic activity. The quenched aliquot centrifuged at 7800 rpm, and 30 μL of the supernatant was analyzed by analytical RP-HPLC as follows: Analytical RP-HPLC method: Agilent Polaris C8-A column (4.6×100 mm, 3 micron) eluted with a linear binary gradient of 10-90% MeCN (0.1% TFA v/v) in water (0.1% TFA v/v) over either 10 or 15 mins at 1.5 mL min-1 at 40° C. with detection by UV absorption at 210 nm. Manual integration (AUC) allowed estimation of remaining intact peptide over the time course of the experiment.

[3] = target: human GLP-1 receptor (hGLP-1R) (Homo sapiens, UniProt P43220); experiment: cAMP production (HTRF) in CHO cells expressing hGLP-1R; type: cell-based; parameters: expressed in transfected cells; details: for EC50: geometric mean, read-out: hGLP-1R EC50; for % Relative Potency Ratio: % GLP-1R activity relative to GLP-1 / % GlucR activity relative to glucagon
Chain of human GLP-1 receptor (hGLP-1R) (P43220 24-463): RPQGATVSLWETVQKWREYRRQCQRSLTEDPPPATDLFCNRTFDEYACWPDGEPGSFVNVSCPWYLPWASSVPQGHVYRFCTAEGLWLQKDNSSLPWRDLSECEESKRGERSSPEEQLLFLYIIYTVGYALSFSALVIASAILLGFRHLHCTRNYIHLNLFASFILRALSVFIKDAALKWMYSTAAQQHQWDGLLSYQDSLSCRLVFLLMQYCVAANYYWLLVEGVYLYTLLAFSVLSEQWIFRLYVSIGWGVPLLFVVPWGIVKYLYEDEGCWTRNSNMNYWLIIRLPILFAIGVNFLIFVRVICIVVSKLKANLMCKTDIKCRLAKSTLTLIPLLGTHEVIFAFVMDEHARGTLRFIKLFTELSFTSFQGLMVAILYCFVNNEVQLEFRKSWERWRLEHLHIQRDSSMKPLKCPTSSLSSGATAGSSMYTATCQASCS
How it was run: (§1)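 Cells were resuspended in assay buffer at batch-optimized density, typically 1×10^5 cells/mL for hGLP-1R and 2×10^5 cells/mL for hGCGR. After 30 min incubation at room temperature with compound, cAMP was measured by two-step HTRF. EC50 values came from 4-parameter logistic fits of % Delta F.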

[4] = target: human glucagon receptor (hGCGR) (Homo sapiens, UniProt P47871); experiment: cAMP production (HTRF) in CHO cells expressing hGCGR; type: cell-based; parameters: expressed in transfected cells; details: geometric mean, read-out: hGluc-R EC50
Chain of human glucagon receptor (hGCGR) (P47871 26-477): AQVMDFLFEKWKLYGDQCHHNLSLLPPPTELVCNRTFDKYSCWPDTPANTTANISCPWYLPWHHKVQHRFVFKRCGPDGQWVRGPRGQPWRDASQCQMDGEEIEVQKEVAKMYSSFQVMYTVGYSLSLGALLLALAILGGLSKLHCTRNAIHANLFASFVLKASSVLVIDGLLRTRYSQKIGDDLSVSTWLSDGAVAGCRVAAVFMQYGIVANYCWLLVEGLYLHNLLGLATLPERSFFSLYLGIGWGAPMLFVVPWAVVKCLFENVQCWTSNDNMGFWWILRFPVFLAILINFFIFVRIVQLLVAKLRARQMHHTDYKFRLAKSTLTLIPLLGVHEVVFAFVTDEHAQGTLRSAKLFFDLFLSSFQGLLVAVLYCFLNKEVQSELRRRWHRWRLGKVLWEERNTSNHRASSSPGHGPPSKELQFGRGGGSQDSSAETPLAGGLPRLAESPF
How it was run: as §1

[5] = Table 7, peptides modified at position 20, cAMP in CHO hGLP-1R cells
[6] = Table 7, peptides modified at position 20, cAMP in CHO hGCGR cells

remaining at 0.25 h, 125 µM [1]	remaining at 0.5 h, 125 µM [1]	remaining at 4 h [2]	remaining at 24 h [2]	% intact peptide over time [2]	EC50 ([3]; Table 6, peptides modified at position 17, cAMP in CHO hGLP-1R cells)	% Relative Potency Ratio ([3]; Table 6)	EC50 ([4]; Table 6, peptides modified at position 17, cAMP in CHO hGCGR cells)	EC50 [3, 5]	% Relative Potency Ratio ([3]; Table 7)	EC50 [4, 6]	% Relative Potency Ratio [3]	EC50 ([3]; cAMP, CHO cells, 0.1% BSA)	EC50 ([4]; cAMP, CHO cells, 0.1% BSA)	Structure (SMILES)
91%	77%	100%	83%	100%	33.1 pM	3.7	61.4 pM							CC[C@H](C)[C@H](NC(=O)C(C)(C)NC(=O)[C@H](CCC(=O)O)NC(=O)[C@@H](NC(=O)[C@](C)(Cc1ccccc1)NC(=O)[C@H](CC(=O)O)NC(=O)[C@H](CCCNC(=N)N)NC(=O)[C@H](C)NC(=O)[C@H](C)NC(=O)[C@H](CCCCNC(=O)COCCOCCNC(=O)COCCOCCNC(=O)CC[C@H](NC(=O)CCCCCCCCCCCCCCCCC(=O)O)C(=O)O)NC(=O)[C@H](CO)NC(=O)[C@H](CC(=O)O)NC(=O)[C@H](CC(C)C)NC(=O)[C@](C)(Cc1ccccc1)NC(=O)[C@H](CCCCN)NC(=O)[C@H](CO)NC(=O)[C@@H](NC(=O)[C@H](CC(=O)O)NC(=O)[C@H](CO)NC(=O)[C@@H](NC(=O)[C@](C)(Cc1ccccc1)NC(=O)[C@H](CO)NC(=O)CNC(=O)[C@H](Cc1c[nH]cn1)NC(=O)C(C)(C)NC(=O)[C@@H](N)Cc1c[nH]cn1)[C@@H](C)O)C(C)C)C(C)C)C(=O)N[C@@H](C)C(=O)N[C@@H](CC(N)=O)C(=O)N[C@H](C(N)=O)[C@@H](C)O [Peptide 15] (H-H[Aib]HGS[αMeF]TSDVSK[αMeF]LDSK([AEEA-AEEA-γGlu-C18 diacid])AARD[αMeF]VE[Aib]IANT-NH2; N-terminus assumed)
83%	76%	100%	97%	100%				1230 pM	1.8	1140 pM				CC[C@H](C)[C@H](NC(=O)C(C)(C)NC(=O)[C@H](CCC(N)=O)NC(=O)[C@@H](NC(=O)[C@](C)(Cc1ccccc1)NC(=O)[C@H](CC(=O)O)NC(=O)[C@H](CCCCNC(=O)COCCOCCNC(=O)COCCOCCNC(=O)CC[C@H](NC(=O)CC[C@H](NC(=O)CCCCCCCCCCCCCCCCCCC(=O)O)C(=O)O)C(=O)O)NC(=O)[C@H](C)NC(=O)[C@H](C)NC(=O)[C@H](CCCNC(=N)N)NC(=O)[C@H](CO)NC(=O)[C@H](CC(=O)O)NC(=O)[C@H](CC(C)C)NC(=O)[C@](C)(Cc1ccccc1)NC(=O)[C@H](CCCCN)NC(=O)[C@H](CO)NC(=O)[C@@H](NC(=O)[C@H](CC(=O)O)NC(=O)[C@H](CO)NC(=O)[C@@H](NC(=O)[C@H](Cc1ccccc1)NC(=O)[C@H](CO)NC(=O)CNC(=O)[C@H](Cc1c[nH]cn1)NC(=O)C(C)(C)NC(=O)[C@@H](N)Cc1c[nH]cn1)[C@@H](C)O)C(C)C)C(C)C)C(=O)N[C@@H](C)C(=O)N[C@@H](CC(N)=O)C(=O)N[C@H](C(N)=O)[C@@H](C)O [Peptide 282] (H-H[Aib]HGSFTSDVSK[αMeF]LDSRAAK([AEEA-AEEA-γGlu-γGlu-C20 diacid])D[αMeF]VQ[Aib]IANT-NH2)
68%	48%	81%	63%	100%				129 pM	8.4	552 pM				CC[C@H](C)[C@H](NC(=O)C(C)(C)NC(=O)[C@H](CCC(N)=O)NC(=O)[C@@H](NC(=O)[C@](C)(Cc1ccccc1)NC(=O)[C@H](CC(=O)O)NC(=O)[C@H](CCCCNC(=O)COCCOCCNC(=O)COCCOCCNC(=O)CC[C@H](NC(=O)CC[C@H](NC(=O)CCCCCCCCCCCCCCCCCCC(=O)O)C(=O)O)C(=O)O)NC(=O)[C@H](C)NC(=O)[C@H](C)NC(=O)[C@H](CCCNC(=N)N)NC(=O)[C@H](CO)NC(=O)[C@H](CC(=O)O)NC(=O)[C@H](CC(C)C)NC(=O)[C@H](Cc1ccc(O)cc1)NC(=O)[C@H](CCCCN)NC(=O)[C@H](CO)NC(=O)[C@@H](NC(=O)[C@H](CC(=O)O)NC(=O)[C@H](CO)NC(=O)[C@@H](NC(=O)[C@](C)(Cc1ccccc1)NC(=O)[C@H](CO)NC(=O)CNC(=O)[C@H](Cc1c[nH]cn1)NC(=O)C(C)(C)NC(=O)[C@@H](N)Cc1c[nH]cn1)[C@@H](C)O)C(C)C)C(C)C)C(=O)N[C@@H](C)C(=O)N[C@@H](CC(N)=O)C(=O)N[C@H](C(N)=O)[C@@H](C)O [Peptide 283] (H-H[Aib]HGS[αMeF]TSDVSKYLDSRAAK([AEEA-AEEA-γGlu-γGlu-C20 diacid])D[αMeF]VQ[Aib]IANT-NH2)
0%	0%			100%										CC[C@H](C)[C@H](NC(=O)[C@H](Cc1c[nH]c2ccccc12)NC(=O)[C@H](CCC(N)=O)NC(=O)[C@@H](NC(=O)[C@H](Cc1ccccc1)NC(=O)[C@H](CC(=O)O)NC(=O)[C@H](CCCCNC(=O)COCCOCCNC(=O)COCCOCCNC(=O)CC[C@H](NC(=O)CC[C@H](NC(=O)CCCCCCCCCCCCCCCCCCC(=O)O)C(=O)O)C(=O)O)NC(=O)[C@H](C)NC(=O)[C@H](C)NC(=O)[C@H](CCCNC(=N)N)NC(=O)[C@H](CO)NC(=O)[C@H](CC(=O)O)NC(=O)[C@H](CC(C)C)NC(=O)[C@](C)(Cc1ccccc1)NC(=O)[C@H](CCCCN)NC(=O)[C@H](CO)NC(=O)[C@@H](NC(=O)[C@H](CC(=O)O)NC(=O)[C@H](CO)NC(=O)[C@@H](NC(=O)[C@H](Cc1ccccc1)NC(=O)[C@H](CO)NC(=O)CNC(=O)[C@H](Cc1c[nH]cn1)NC(=O)C(C)(C)NC(=O)[C@@H](N)Cc1c[nH]cn1)[C@@H](C)O)C(C)C)C(C)C)C(=O)N[C@@H](C)C(=O)N[C@@H](CC(N)=O)C(=O)N[C@H](C(N)=O)[C@@H](C)O [Peptide 290] (H-H[Aib]HGSFTSDVSK[αMeF]LDSRAAK([AEEA-AEEA-γGlu-γGlu-C20 diacid])DFVQWIANT-NH2)
0%	0%										1.0	139 pM	72.4 pM	CC[C@H](C)[C@H](NC(=O)[C@H](Cc1c[nH]c2ccccc12)NC(=O)[C@H](CCCCNC(=O)COCCOCCNC(=O)COCCOCCNC(=O)CC[C@H](NC(=O)CCCCCCCCCCCCCCCCCCC(=O)O)C(=O)O)NC(=O)[C@@H](NC(=O)[C@H](Cc1ccccc1)NC(=O)[C@H](CC(=O)O)NC(=O)[C@H](CCC(N)=O)NC(=O)[C@H](C)NC(=O)[C@H](C)NC(=O)[C@H](CCCNC(=N)N)NC(=O)[C@H](CO)NC(=O)[C@H](CC(=O)O)NC(=O)[C@H](CC(C)C)NC(=O)[C@](C)(Cc1ccccc1)NC(=O)[C@H](CCCCN)NC(=O)[C@H](CO)NC(=O)[C@@H](NC(=O)[C@H](CC(=O)O)NC(=O)[C@H](CO)NC(=O)[C@@H](NC(=O)[C@](C)(Cc1ccccc1)NC(=O)[C@H](CO)NC(=O)CNC(=O)[C@H](Cc1c[nH]cn1)NC(=O)C(C)(C)NC(=O)[C@@H](N)Cc1c[nH]cn1)[C@@H](C)O)C(C)C)C(C)C)C(=O)N[C@@H](C)C(=O)N[C@@H](CC(N)=O)C(=O)N[C@H](C(N)=O)[C@@H](C)O [Peptide 367] (H-H[Aib]HGS[αMeF]TSDVSK[αMeF]LDSRAAQDFVK([AEEA-AEEA-γGlu-C20 diacid])WIANT-NH2; N-terminus assumed)
